Experimental data as given in paper PMC10709440, “High-throughput ligand profile characterization in novel cell lines expressing seven heterologous insect olfactory receptors for the detection of volatile plant biomarkers” (Scientific Reports, 2023).
Like-named read-outs stand apart in the source and are kept apart here.

Tests used:
[1] = target: T1, Drosophila OR47a (Drosophila melanogaster, UniProt P81921); assay: Calcium ion fluorescence (GCaMP6) assay, OR47a stable HEK293 cell line; assay type: cell-based; conditions: for activation at 1 µM / activation at 10 µM / activation at 100 µM: HEK293, read-out: OR47a response (VUAA1-normalized response); for Average response: OR47a cell line, mean of biological replicates
T1 construct: expressed in transfected cells
T1 sequence (P81921 1-385): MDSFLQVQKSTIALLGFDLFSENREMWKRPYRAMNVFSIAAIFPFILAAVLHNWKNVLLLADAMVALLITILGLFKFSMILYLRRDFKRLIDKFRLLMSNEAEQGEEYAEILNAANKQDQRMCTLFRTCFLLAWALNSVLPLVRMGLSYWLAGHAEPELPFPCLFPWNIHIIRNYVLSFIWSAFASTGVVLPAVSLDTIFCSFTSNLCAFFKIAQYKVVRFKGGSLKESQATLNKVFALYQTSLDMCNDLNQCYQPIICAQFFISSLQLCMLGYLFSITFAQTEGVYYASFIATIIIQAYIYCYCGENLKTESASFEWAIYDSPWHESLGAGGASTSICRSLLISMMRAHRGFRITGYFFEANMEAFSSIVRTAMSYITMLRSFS
T1 sequence (Q9VNB5 1-486 partner): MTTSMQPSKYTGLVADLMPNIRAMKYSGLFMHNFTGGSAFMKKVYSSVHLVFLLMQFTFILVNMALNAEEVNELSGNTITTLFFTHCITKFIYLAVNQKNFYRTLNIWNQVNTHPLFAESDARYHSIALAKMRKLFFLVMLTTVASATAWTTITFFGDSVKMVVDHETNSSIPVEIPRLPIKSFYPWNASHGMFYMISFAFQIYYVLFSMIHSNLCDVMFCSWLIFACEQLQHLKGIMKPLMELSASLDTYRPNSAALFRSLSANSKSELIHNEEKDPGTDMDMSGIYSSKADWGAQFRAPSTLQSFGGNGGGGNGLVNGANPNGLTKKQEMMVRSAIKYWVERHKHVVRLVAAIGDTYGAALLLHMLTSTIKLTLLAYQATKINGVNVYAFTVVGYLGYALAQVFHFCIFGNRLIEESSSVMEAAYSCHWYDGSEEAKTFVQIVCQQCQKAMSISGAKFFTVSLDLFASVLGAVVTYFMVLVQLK
Method in brief: (§1)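 Responses are VUAA1-normalized ΔF: each VOC-evoked calcium signal, (FMAX−F0)/F0 over 30 s after injection, divided by the same line's mean 50 µM VUAA1 response. Cells were doxycycline-induced HEK293 with GCaMP6 and the cognate Drosophila OR, in HEPES buffer pH 7.3; ligands tested 0.01–100 μM.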

[2] = target: T2, Drosophila OR13a (Drosophila melanogaster, UniProt Q9VXL0); assay: Calcium ion fluorescence (GCaMP6) assay, OR13a stable HEK293 cell line; assay type: cell-based
T2 construct: expressed in transfected cells
T2 sequence (Q9VXL0 1-418): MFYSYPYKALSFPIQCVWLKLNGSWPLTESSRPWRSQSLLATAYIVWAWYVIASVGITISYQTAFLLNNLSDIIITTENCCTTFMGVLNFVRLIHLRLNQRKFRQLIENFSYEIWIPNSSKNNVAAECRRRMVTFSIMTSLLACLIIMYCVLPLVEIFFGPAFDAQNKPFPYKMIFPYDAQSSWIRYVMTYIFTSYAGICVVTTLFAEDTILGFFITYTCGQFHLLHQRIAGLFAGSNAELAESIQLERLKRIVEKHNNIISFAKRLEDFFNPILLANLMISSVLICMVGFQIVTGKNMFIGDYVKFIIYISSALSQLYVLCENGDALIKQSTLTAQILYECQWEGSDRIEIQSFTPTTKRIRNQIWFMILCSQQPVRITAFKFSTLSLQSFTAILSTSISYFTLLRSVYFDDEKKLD
T2 sequence (Q9VNB5 1-486 partner): T1 sequence (Q9VNB5 1-486 partner)
Method in brief: as §1

[3] = concentration 1, normalized fluorescence change, values below 0.05 threshold given as 0
[4] = concentration 10, normalized fluorescence change, values below 0.05 threshold given as 0
[5] = concentration 100, normalized fluorescence change, values below 0.05 threshold given as 0
[6] = HEK293, read-out: OR13a Average response (VUAA1-normalized), 1 μM VOC, 50 μM VUAA1 = 1, responses not exceeding 0.05 considered 0
[7] = HEK293, read-out: OR13a Average response (VUAA1-normalized), 10 μM VOC, 50 μM VUAA1 = 1, responses not exceeding 0.05 considered 0
[8] = HEK293, read-out: OR13a Average response (VUAA1-normalized), 100 μM VOC, 50 μM VUAA1 = 1, responses not exceeding 0.05 considered 0
[9] = HEK293, read-out: OR13a response (VUAA1-normalized response), VOC concentration 1 μM
[10] = HEK293, read-out: OR13a response (VUAA1-normalized response), VOC concentration 10 μM
[11] = HEK293, read-out: OR13a response (VUAA1-normalized response), VOC concentration 100 μM
[12] = ligand concentration 1 (unit not given), threshold 0.05, below shown as 0
[13] = ligand concentration 10 (unit not given), threshold 0.05, below shown as 0
[14] = ligand concentration 100 (unit not given), threshold 0.05, below shown as 0

Row | SMILES | activation at 1 µM [1] [%] | activation at 10 µM [1] [%] | activation at 100 µM [1] [%] | Average response ([1]; odorant cc. 1 µM) | Average response ([1]; odorant cc. 10 µM) | Average response ([1]; odorant cc. 100 µM) | DF norm AVERAGE OR47a [1, 3] | DF norm AVERAGE OR47a [1, 4] | DF norm AVERAGE OR47a [1, 5] | activation at 1 µM [2, 6] [%] | activation at 10 µM [2, 7] [%] | activation at 100 µM [2, 8] [%] | activation at 1 µM [2, 9] [%] | activation at 10 µM [2, 10] [%] | activation at 100 µM [2, 11] [%] | DF norm AVERAGE OR13a [2, 3] | DF norm AVERAGE OR13a [2, 4] | DF norm AVERAGE OR13a [2, 5] | DF norm AVERAGE OR47a [1, 12] | DF norm AVERAGE OR47a [1, 13] | also measured
1 | CCCCCCCO [1-heptanol] | 0 | 0 | 0 | 0.00 | 0.00 | 0.0219 | 0 | 0 | 0 | 2 | 15 | 22 | 0 | 15 | 22 | 0 | 0.145 | 0.219 | – | – | –
2 | Cc1cccc(O)c1 [3-methylphenol] | 0 | 0 | 0 | 0.00 | 0.00 | 0.00 | 0 | 0 | 0 | 0 | 0 | 1.35 | 0 | 0 | 0 | 0 | 0 | 0 | – | – | –
3 | CCCCCCCCC(CO)CCCCCC (stereo not drawn) [2-hexyl-1-decanol] | 0 | 0 | 0 | 0.00 | 0.05 | 0.00 | 0 | 0 | 0 | 7 | 0 | 0 | 7 | 0 | 0 | 0.07079 | 0 | 0 | – | – | –
4 | CC(=O)c1ccccc1 [acetophenone] | 0 | 0 | 0 | 0.0171 | 0.00 | 0.0243 | – | – | – | 0 | 0 | 0 | 0 | 0 | 0 | – | – | – | 0 | 0 | DF norm AVERAGE OR47a [1, 14]: 0; DF norm AVERAGE OR13a [2, 12]: 0; DF norm AVERAGE OR13a [2, 13]: 0; DF norm AVERAGE OR13a [2, 14]: 0
5 | CCCCCC(C)O (stereo not drawn) [2-heptanol] | 0 | 6 | 0 | 0.00 | 0.06 | 0.00 | 0 | 0.05999 | 0 | 4 | 0 | 8 | 0 | 0 | 8 | 0 | 0 | 0.07697 | – | – | –
6 | O=Cc1ccccc1 [benzaldehyde] | 0 | 0 | 0 | 0.03 | 0.00 | 0.00 | – | – | – | 0 | 8 | 5 | 0 | 8 | 0 | – | – | – | 0 | 0 | DF norm AVERAGE OR47a [1, 14]: 0; DF norm AVERAGE OR13a [2, 12]: 0; DF norm AVERAGE OR13a [2, 13]: 0.07623; DF norm AVERAGE OR13a [2, 14]: 0
